{
  "source": "patent US11191839B2",
  "about": "“Composition for treatment of infertility in a subject” (priority 2015, dated 2021)",
  "origin": "cited, not measured here",
  "test_system": "couples with unexplained infertility",
  "settings": "pertubation with low doses before artificial insemination; Edelstam et al. 2008",
  "data": [
    {"smiles": "CCN(CC)CC(=O)Nc1c(C)cccc1C", "note": "[lidocaine, Lidocaine]", "values": [
      {"measurement": "Pregnancy rates", "result": "increase pregnancy rates"}
    ]}
  ]
}
